From US7678384B2, “Vinylaminopyrazole derivatives as pesticides” (Merial Limited, priority 2004, dated 2010)

Assays:
Format in all cases: in vivo
[1] = test system: Rhipicephalus sanguineus (Brown dog tick); test: Method D: screening method to test contact activity against Rhipicephalus sanguineus; conditions: test concentration 10 ppm; filter paper contact; L1 larvae; 24 hours after application
Experimental: METHOD D: Screening method to test contact activity against Rhipicephalus sanguineus (Brown dog tick)
Solutions of the test compounds were dropped onto filter paper, dried and the filter paper placed into test tubes and infested with 20-30 larvae (L1) of Rhipicephalus sanguineus and the tubes closed with a clip. The treated Rhipicephalus sanguineus were held in a climate chamber (25° C., 90% RH) and the percentage efficacy assessed 24 hours after application in comparison with the untreated control.

[2] = test system: Frankliniella occidentalis; test: Method F: Thrip (Frankliniella occidentalis) screen; conditions: concentration 100 ppm; French bean leaf dip; mixed population; after 7 days
Experimental: METHOD F: Thrip (Frankliniella occidentalis) Screen
French bean plants are cut at the base of the stem and transferred into bottles filled with tap water. The leaves are then dipped for 5 seconds into an aqueous solution of the formulated preparation to be examined. After the solution has run off, the leaves are infested with 20-30 individuals of a mixed population of flower thrips (Frankliniella occidentalis) and then stored in a controlled-environment cabinet at approx. 25° C. After 7 days storage, the effect of the preparation on the thrips is determined. Compound number 1-1 gave at least 70% control of Frankliniella occidentalis at the concentration of 100 ppm.

[3] = test system: Ctenocephalides felis (Cat flea); test: Method A: screening method to test systemicity against Ctenocephalides felis (artificial dog test, treated bovine blood); conditions: test concentration 1 ppm in bovine blood; 10 adults; assessment at 24 and 48 hours
Experimental: METHOD A: Screening method to test systemicity of compounds against Ctenocephalides felis (Cat flea)
A test container was filled with 10 adults of Ctenocephalides felis. A glass cylinder was closed on one end with parafilm and placed on top of the test container. The test compound solution was then pipetted into bovine blood and added to the glass cylinder. The treated Ctenocephalides felis were held in this artificial dog test (blood 37° C., 40-60% relative humidity; Ctenocephalides felis 20-22° C., 40-60% relative humidity) and assessment performed at 24 and 48 hours after application.

[4] = test system: tobacco budworm (Heliothis virescens); test: Method E: Heliothis virescens screen; conditions: concentration 100 ppm; egg dip; after 6 days
Experimental: METHOD E: Heliothis Virescens Screen
A Petri dish whose bottom is covered with filter paper and which contains about 5 ml of culture medium is prepared. Pieces of filter paper with about 30, 24-hour-old eggs of the tobacco budworm (Heliothis virescens) are dipped into an aqueous solution of the formulated preparation to be examined for about 5 seconds and subsequently placed into the Petri dish. A further 200 μl of the aqueous solution are dropped over the culture medium. The Petri dish is closed and then kept at about 25° C. in a climatized chamber. After 6 days storage, the effect of the preparation on the eggs and the larvae which may have hatched from these is determined. Compound number 1-1 gave at least 50% control of tobacco budworm with the concentration at 100 ppm.

[5] = test system: Diabrotica undecimpunctata (southern corn rootworm); test: Method B: Diabrotica undecimpunctata (southern corn rootworm) screen; conditions: concentration 10 ppm; eggs on filter paper with maize seed; assessed 6 days after application
From the text: METHOD B: Diabrotica undecimpunctata (southern corn rootworm) screen
Two days before application, seeds of maize were soaked in water under warm conditions to elicit fast germination. One day before application, eggs of Diabrotica undecimpunctata were transferred to one half of a Japanese filter paper placed in a plastic petri dish. Afterwards, a sprouted maize seed was placed on a moistened pad beside the filter paper. Three drops of 200 microlitres of test compound solution were carefully pipetted onto the egg. The remainder of the solution was placed on the maize and then the Petri dish was closed. The treated eggs in the Petri dishes were held in a climate chamber for 6 days. The compound efficacy (percentage of dead eggs and/or larvae in comparison to untreated control) was assessed 6 days after application using a binocular microscope. Compound number 1-1 gave at least 60% control with the concentration at 10 ppm.

Nilaparvata lugens = test: Method C: Rice leafhopper screen; conditions: foliar, 144 h, read-out: control of Nilaparvata lugens (mortality among leafhopper larvae)
Experimental: METHOD C: Rice leafhopper screen
The leaves of rice plants are dipped for 5 seconds into an aqueous solution of the formulated preparation to be examined. After the solution has run off, the rice plants are placed in a Petri dish and populated with about 20 larvae (L3 stage) of the rice leafhopper species Nilaparvata lugens. The Petri dish is closed and then stored in a climatized chamber (16 hours of light/day, 25° C., 40-60% relative atmospheric humidity). After 6 days storage, the mortality among the leafhopper larvae is determined. Compound number 1-1 gave at least 60% control of Nilaparvata lugens with the concentration of 10 ppm.

Structure (SMILES)	control (percentage efficacy in comparison with untreated control) [1]	control of Frankliniella occidentalis [2]	control of Ctenocephalides felis [3]	control of tobacco budworm (effect on eggs and larvae) [4]	control (percentage of dead eggs and/or larvae in comparison to untreated control) [5]	mortality at 10 ppm (Nilaparvata lugens) [%]
C=CN(C)c1c(S(=O)(=O)C(F)(F)F)c(C#N)nn1-c1c(Cl)cc(C(F)(F)F)cc1Cl [Compound 1-1, 1-[2,6-dichloro-4-(trifluoromethyl)phenyl]-5-[methyl(vinyl)amino]-4-[(trifluoromethyl)sulfonyl]-1H-pyrazole-3-carbonitrile]	at least 50%	at least 70%	at least 50%	at least 50%	at least 60%	≥ 60
CN(CCI)c1c(S(=O)(=O)C(F)(F)F)c(C#N)nn1-c1c(Cl)cc(C(F)(F)F)cc1Cl [Intermediate Example 2, 1-[2,6-dichloro-4-(trifluoromethyl)phenyl]-5-[(2-iodoethy)(methyl)amino]-4-[(trifluoromethyl)sulfonyl]-1H-pyrazole-3-carbonitrile]			at least 70%			
